Source: PMC7547832 (Journal of Fluorine Chemistry, 2020)

Legend:
Assay type in all cases: cell-based
[1] = tested on: Influenza virus A/Puerto Rico/8/34 (H1N1); conditions: ratio of CC50 to IC50, MDCK cell line
Coxsackie virus B3 = experiment: Cell protection assay, Coxsackie virus B3 in Vero cells; conditions: for IC50: Enterovirus B, B3, Vero, 72 h; for SI (selectivity index): ratio of CC50 to IC50, Coxsackie virus B3, Vero cell line
[2] = Toxicity studies, microtetrazolium test; conditions: dog, MDCK cells (ATCC CCL-34)

For COC(=O)c1c(-c2ccc(OC)c(OC)c2)oc2c(F)c(F)c(F)cc2c1=O [Compound 5а, Methyl 6,7,8-trifluoro-2-(3,4-dimethoxyphenyl)-4-oxo-4H-chromene-3-carboxylate], the “SI (selectivity index)” value [1] was 16, the IC50 (Coxsackie virus B3) was 635 ± 42 µM and the CC50 at 48 h [2] was 508 ± 32 µM.

In the case of COc1ccc(-c2cc(=O)c3c(F)c(F)c(-n4ccnc4)c(F)c3o2)cc1OC [Compound 13, 5,6,8-Trifluoro-2-(3,4-dimethoxyphenyl)-7-(1H-imidazol-1-yl)-4H-chromene-4-one], the IC50 (Coxsackie virus B3) is reported as 29 ± 4 µM, the “antiviral properties against the Coxsackie virus B3 (in words)” value (Coxsackie virus B3; Vero cell culture) is reported as “demonstrated antiviral properties against the Coxsackie virus B3” and the “SI (selectivity index)” value (Coxsackie virus B3) is reported as 26. The CC50 at 48 h [2] was greater than 746 µM.

Work on COC(=O)c1c(-c2ccc(OC)c(OC)c2)oc2c(F)c(-n3ccnc3)c(F)cc2c1=O [Compound 7а, Methyl 6,8-difluoro-2-(3,4-dimethoxyphenyl)-7-(1H-imidazol-1-yl)-4-oxo-4H-chromene-3-carboxylate] yielded an IC50 (Coxsackie virus B3) greater than 226 µM and a CC50 at 48 h [2] greater than 679 µM.

With COC(=O)c1c(-c2ccc(OC)c(OC)c2)oc2c(F)c(F)c(F)c(F)c2c1=O [Compound 4a, Methyl 5,6,7,8-tetrafluoro-2-(3,4-dimethoxyphenyl)-4-oxo-4H-chromene-3-carboxylate] the “SI (selectivity index)” value [1] was 2, the IC50 (Coxsackie virus B3) was greater than 61 µM and the CC50 at 48 h [2] was 109 ± 8 µM.

For NC(=O)c1ncn([C@@H]2O[C@H](CO)[C@@H](O)[C@H]2O)n1 [ribavirin, reference compound], the IC50 (Coxsackie virus B3) was 34 ± 4 µM, the “SI (selectivity index)” value (Coxsackie virus B3) was greater than 63 and the CC50 at 48 h [2] was greater than 2130 µM.

In the case of COC(=O)c1c(-c2ccc(OC)c(OC)c2)oc2c(F)c(-n3ccnc3)c(F)c(F)c2c1=O [Compound 6a, Methyl 5,6,8-trifluoro-2-(3,4-dimethoxyphenyl)-7-(1H-imidazol-1-yl)-4-oxo-4H-chromene-3-carboxylate], the “SI (selectivity index)” value [1] is reported as 5, the IC50 (Coxsackie virus B3) is reported as greater than 65 µM and the CC50 at 48 h [2] is reported as 61 ± 4 µM.

In the case of COC(=O)c1c(-c2ccc(OC)cc2)oc2c(F)c(-n3ccnc3)c(F)c(O)c2c1=O [Compound 8b, Methyl 6,8-difluoro-5-hydroxy-7-(1H-imidazol-1-yl)-2-(4-methoxyphenyl)-4-oxo-4H-chromene-3-carboxylate], the “SI (selectivity index)” value [1] is reported as 16 and the CC50 at 48 h [2] is reported as 629 ± 41 µM.
